Experimental findings from ChEMBL document CHEMBL1177645, “Crystallographic and docking studies of purine nucleoside phosphorylase from Mycobacterium tuberculosis” (Bioorg Med Chem, 2010) are described below.

SMILES strings stand for the structures.

This assay concerns the target T1, Purine nucleoside phosphorylase (Mycobacterium tuberculosis, UniProt P9WP01).
T1 sequence (P9WP01 whole entry): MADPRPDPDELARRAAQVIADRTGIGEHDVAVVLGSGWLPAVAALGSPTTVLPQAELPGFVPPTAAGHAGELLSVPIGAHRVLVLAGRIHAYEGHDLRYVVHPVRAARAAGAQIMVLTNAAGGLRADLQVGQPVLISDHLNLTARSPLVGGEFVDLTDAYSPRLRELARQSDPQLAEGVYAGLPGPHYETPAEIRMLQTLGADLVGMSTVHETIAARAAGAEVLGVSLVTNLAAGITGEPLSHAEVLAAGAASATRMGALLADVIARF
Kind of assay: Binding affinity to Mycobacterium tuberculosis purine nucleoside phosphorylase by spectrophotometric analysis.
On to `O=c1[nH]c(=O)c2c[nH]nc2[nH]1` [OXYPURINOL], for which the affinity, expressed as Kd, was 794 µM.
Consider `Nc1nc2c(ncn2COCCO)c(=O)[nH]1` [ACYCLOVIR], for which the Kd is 12.6 µM. Against the preceding molecule, the Kd is about 63-fold lower.
The same measure for `CSc1ncnc2c1ncn2[C@@H]1O[C@H](CO)[C@@H](O)[C@H]1O`: 12.6 µM; for `Sc1ncnc2nc[nH]c12` [MERCAPTOPURINE ANHYDROUS]: 79.4 µM; for `Nc1nc(O)c2ncn(COC(CO)CO)c2n1` [GANCICLOVIR]: 15.8 µM.
For `Oc1ncnc2[nH]ncc12` [ALLOPURINOL] the value was 1000 µM.
Molecule `CSc1nc(N)nc2[nH]cnc12` showed a Kd of 316 µM.

The Kd is the equilibrium constant for the complex coming apart. A high value points to weaker binding.
